In patent US11661431B2, “Thienopyrrole compounds” (Gilead Sciences, Inc., priority 2021, dated 2023):

Columns and labels:
[1] = molecular target: TLR7 (Homo sapiens (Human), UniProt Q9NYK1); test: TLR7 human peripheral blood mononuclear cell (PBMC) cell-based assay (GS-986 as agonist; IL-6 and IFNα readout); details: human PBMCs, TLR7 agonist GS-986 at 400 nM, 6 hours, antagonist potency; read-out: TLR-7 EC50
Experimental: Human peripheral blood mononuclear cells (PBMCs) consist of lymphocytes, monocytes and dendritic cells that express TLR7, TLR8 and TLR9. These cells respond to TLR7, TLR8 and TLR9 ligand stimulation and produce cytokines and chemokines in vitro and in vivo. Human PBMCs are therefore suitable to be used in a cell-based assay to assess the in vitro potency of a TLR 7, 8, and/or 9 antagonist.
After counting, the cell density was adjusted to 2 million cells/ml and incubated for 1 hour at 37° C., 5% CO2 for recovery. Following the recovery, the cells were plated by adding 50 μl per well (100,000 cells) to 384-well cell culture plates (Greiner) containing 250 nl of test antagonists in 100% DMSO per well, in a 10 points dose response in quadruplicates. PBMCs were incubated in the presence of test antagonists for one hour at 37° C., 5% CO2 before being stimulated with a TLR7 or TLR9agonist. […] PBMCs were incubated in the presence of the test antagonist and the TLR7 (or TLR9) agonist for an additional 6 hours at 37° C., 5% CO2. At the end of the incubation, the cell culture plates were centrifuged at 500 g for 5 min, and the cell culture supernatant was collected. The level of cytokines (IL-6 and IFNα) in the supernatant was measured by electrochemiluminescence immunoassays (Mesoscale Discovery) following manufacturer's recommended protocols.

[2] = molecular target: TLR8 (Homo sapiens (Human), UniProt Q9NR97); test: TLR8 human peripheral blood mononuclear cell (PBMC) cell-based assay (Compound A as agonist; TNFα and IL12p40 readout); details: human PBMCs, TLR8 agonist Compound A at 800 nM, 6 hours, antagonist potency; read-out: TLR-8 EC50
Experimental: After counting, the cell density was adjusted to 2 million cells/ml and incubated for 1 hour at 37° C., 5% CO2 for recovery. Following the recovery, the cells were plated by adding 50 μl per well (100,000 cells) to 384-well cell culture plates (Greiner) containing 250 nl of test antagonists in 100% DMSO per well, in a 10 points dose response in quadruplicates. PBMCs were incubated in the presence of antagonists for one hour at 37° C., 5% CO2 before being stimulated with TLR8 agonist. […] PBMCs were incubated in the presence of antagonist and the TLR8 agonist for an additional 6 hours at 37° C., 5% CO2. At the end of the incubation, the cell culture plates were centrifuged at 500 g for 5 min, and the cell culture supernatant was collected. The level of cytokines (TNFα and IL12p40) in the supernatant was measured by electrochemiluminescence immunoassays (Mesoscale Discovery) following manufacturer's recommended protocols.

TLR8, sequence (Q9NR97 27-1041): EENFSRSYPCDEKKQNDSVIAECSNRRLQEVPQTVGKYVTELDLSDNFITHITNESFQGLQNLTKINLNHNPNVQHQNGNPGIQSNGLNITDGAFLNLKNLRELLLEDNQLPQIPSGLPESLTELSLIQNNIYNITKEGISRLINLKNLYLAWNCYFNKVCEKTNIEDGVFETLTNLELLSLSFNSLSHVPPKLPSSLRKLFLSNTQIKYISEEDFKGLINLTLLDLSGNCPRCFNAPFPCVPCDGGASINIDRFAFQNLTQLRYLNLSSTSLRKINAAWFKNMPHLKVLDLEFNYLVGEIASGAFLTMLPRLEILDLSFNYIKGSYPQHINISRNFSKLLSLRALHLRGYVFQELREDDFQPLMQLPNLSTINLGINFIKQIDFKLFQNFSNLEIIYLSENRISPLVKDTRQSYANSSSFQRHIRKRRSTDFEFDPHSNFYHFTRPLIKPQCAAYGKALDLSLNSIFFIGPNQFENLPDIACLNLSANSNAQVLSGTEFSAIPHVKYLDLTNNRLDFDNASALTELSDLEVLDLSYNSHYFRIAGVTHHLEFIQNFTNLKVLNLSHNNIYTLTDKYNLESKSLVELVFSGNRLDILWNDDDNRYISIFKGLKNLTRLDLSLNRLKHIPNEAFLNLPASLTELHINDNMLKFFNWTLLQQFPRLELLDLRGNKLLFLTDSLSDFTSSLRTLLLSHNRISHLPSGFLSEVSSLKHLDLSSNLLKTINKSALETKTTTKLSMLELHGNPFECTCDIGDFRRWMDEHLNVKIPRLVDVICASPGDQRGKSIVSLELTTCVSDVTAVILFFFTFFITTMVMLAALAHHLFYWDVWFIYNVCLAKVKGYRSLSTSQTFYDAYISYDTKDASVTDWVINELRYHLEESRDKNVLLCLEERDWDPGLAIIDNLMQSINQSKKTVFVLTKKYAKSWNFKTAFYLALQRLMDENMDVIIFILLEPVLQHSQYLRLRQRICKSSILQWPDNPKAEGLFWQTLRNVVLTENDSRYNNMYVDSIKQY
TLR7, sequence (Q9NYK1 27-1049): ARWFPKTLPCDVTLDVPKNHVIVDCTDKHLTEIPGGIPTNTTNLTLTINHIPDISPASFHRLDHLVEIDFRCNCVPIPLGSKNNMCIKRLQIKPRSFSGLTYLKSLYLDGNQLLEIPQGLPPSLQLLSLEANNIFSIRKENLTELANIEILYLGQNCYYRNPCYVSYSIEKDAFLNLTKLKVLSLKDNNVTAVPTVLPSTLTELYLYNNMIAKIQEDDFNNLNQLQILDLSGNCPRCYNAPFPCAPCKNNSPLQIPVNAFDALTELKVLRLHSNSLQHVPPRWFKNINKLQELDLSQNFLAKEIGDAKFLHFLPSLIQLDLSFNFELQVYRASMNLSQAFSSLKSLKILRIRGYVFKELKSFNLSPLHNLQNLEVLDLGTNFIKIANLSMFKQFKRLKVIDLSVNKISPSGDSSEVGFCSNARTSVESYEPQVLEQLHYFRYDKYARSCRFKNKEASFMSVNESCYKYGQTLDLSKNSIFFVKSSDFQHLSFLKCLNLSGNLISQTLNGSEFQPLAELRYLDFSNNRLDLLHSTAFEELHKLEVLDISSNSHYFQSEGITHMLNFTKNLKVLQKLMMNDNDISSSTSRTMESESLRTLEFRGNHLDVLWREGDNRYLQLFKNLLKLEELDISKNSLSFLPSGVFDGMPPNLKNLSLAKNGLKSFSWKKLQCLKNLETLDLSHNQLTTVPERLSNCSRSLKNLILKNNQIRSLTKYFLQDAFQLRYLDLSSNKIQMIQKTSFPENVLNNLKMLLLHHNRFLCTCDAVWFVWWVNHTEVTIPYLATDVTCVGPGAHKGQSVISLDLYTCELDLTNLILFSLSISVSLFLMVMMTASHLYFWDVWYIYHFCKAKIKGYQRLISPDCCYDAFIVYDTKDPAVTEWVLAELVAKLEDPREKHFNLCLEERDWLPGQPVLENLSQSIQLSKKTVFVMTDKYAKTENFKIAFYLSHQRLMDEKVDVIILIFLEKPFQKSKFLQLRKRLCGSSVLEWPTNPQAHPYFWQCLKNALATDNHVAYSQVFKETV

EC50 [1] [nM]	EC50 [2] [nM]	Structure (SMILES)
0.08	0.12	Cc1c(-c2[nH]c3sc([C@@H]4C[C@@H]5C[C@H]4CN5Cc4nnc[nH]4)c(C)c3c2C(C)C)cn2ncnc2c1C [Example 176]
0.32	4.91	Cc1c(-c2[nH]c3sc(C4CCN(C(=O)[C@H]5C[C@@H](C(F)(F)F)CCN5)CC4)c(C)c3c2C(C)C)cn2ncnc2c1C [Example 284]
8.77	76.2	Cc1c(-c2[nH]c3sc(C4CCC45CNC5)c(C)c3c2C(C)C)cn2ncnc2c1C (centres unmarked) [Example 228, 5-(7,8-dimethyl-[1,2,4]triazolo[1,5-a]pyridin-6-yl)-4-isopropyl-3-methyl-2-(2-azaspiro[3.3]heptan-5-yl)-6H-thieno[2,3-b]pyrrole]
0.17	3.33	Cc1c(-c2[nH]c3sc(C4CC(n5cc(C6COCCN6)nn5)C4)c(C)c3c2C(C)C)cn2ncnc2c1C (single isomer, unassigned) [Example 245, 3-(1-(3-(5-(7,8-dimethyl-[1,2,4]triazolo[1,5-a]pyridin-6-yl)-4-isopropyl-3-methyl-6H-thieno[2,3-b]pyrrol-2-yl)cyclobutyl)-1H-1,2,3-triazol-4-yl)morpholine]
1.22	21.4	Cc1c(-c2[nH]c3sc(C4C[C@@H]5C[C@H]4CC5N4CCS(=N)(=O)CC4)c(C)c3c2C(C)C)cn2ncnc2c1C (some centres unmarked) [Example 255]
2.13	1.19	COCCNC(=O)CN1C[C@@H]2C[C@H]1C[C@H]2c1sc2[nH]c(-c3cn4ncnc4c(C)c3C)c(C(C)C)c2c1C [Example 272]
0.16	0.79	Cc1c(-c2[nH]c3sc([C@@H]4C[C@@H]5CC[C@H]4CN5CCS(C)(=O)=O)c(C)c3c2C(C)C)cn2ncnc2c1C (single isomer, unassigned) [Example 233]
1.25	21.4	Cc1c(-c2[nH]c3sc([C@H]4C[C@@H](c5nnc([C@@H]6COCCN6)o5)C4)c(C)c3c2C(C)C)cn2ncnc2c1C (single isomer, unassigned) [Example 243]
0.26	6.51	COCc1c(C2CCN(CC(N)=O)CC2)sc2[nH]c(-c3cc(C)c4ncnn4c3)c(C(C)C)c12 [Example 160]
1.24	3.68	Cc1c(-c2[nH]c3sc(-c4cnc(C5CCNCC5)nc4)c(C)c3c2C(C)C)cn2ncnc2c1C [Example 224]
< 0.05	4.17	Cc1c(-c2[nH]c3sc(C4CCN(C(=O)C5CN6CC7CC6(CO5)C7)CC4)c(C)c3c2C(C)C)cn2ncnc2c1C (centres unmarked) [Example 105]
2.74	22.6	Cc1c(-c2[nH]c3sc(C4CCN(C5CCN(C)C5=O)CC4)c(C)c3c2C(C)C)cn2ncnc2c1C (centres unmarked) [Example 288]
4.14	1	Cc1c(-c2[nH]c3sc(-c4cnc(C5CCN(CC(N)=O)CC5)nc4)c(C)c3c2C(C)C)cn2ncnc2c1C [Example 226]
0.2		Cc1c(-c2[nH]c3sc(C4CC5(CNCCO5)C4)c(C)c3c2C(C)C)cn2ncnc2c1C (single isomer, unassigned) [Example 89, 2-(5-(7,8-dimethyl-[1,2,4]triazolo[1,5-a]pyridin-6-yl)-4-isopropyl-3-methyl-6H-thieno[2,3-b]pyrrol-2-yl)-5-oxa-8-azaspiro[3.5]nonane]

Further lines, the compound ahead of its results:

Structure (SMILES)	EC50 [1] [nM]	EC50 [2] [nM]
Cc1c(-c2[nH]c3sc(C4CCN(C(=O)[C@H]5CO[C@@H](C)CN5)CC4)c(C)c3c2C(C)C)cn2ncnc2c1C [Example 280]	1.96	41.2
Cc1c(-c2[nH]c3sc(C4CC5(C4)CC(N(C4COC4)C4COC4)C5)c(C)c3c2C(C)C)cn2ncnc2c1C (centres unmarked) [Example 188]	5.64	27.2
Cc1c(C2CCN(S(=O)(=O)N3CCN(C)CC3)CC2)sc2[nH]c(-c3cc(C)c4ncnn4c3)c(C(C)C)c12 [Example 157]	0.17	29.6
Cc1c(-c2[nH]c3sc(C4C[C@@H]5C[C@H]4CC5N4CCS(=O)(=O)CC4)c(C)c3c2C(C)C)cn2ncnc2c1C (some centres unmarked) [Example 256]	2.31	29.2
Cc1c(CC2CCNCC2)sc2[nH]c(-c3cc(C)c4ncnn4c3)c(C(C)C)c12 [Example 278]	0.17	0.8
Cc1c([C@@H]2C[C@@H]3CN(CC(N)=O)C[C@@H]3C2)sc2[nH]c(-c3cc(C)c4ncnn4c3)c(C(C)C)c12 [Example 71, 2-((3aR,6aS)-5-(4-isopropyl-3-methyl-5-(8-methyl-[1,2,4]triazolo[1,5-a]pyridin-6-yl)-6H-thieno[2,3-b]pyrrol-2-yl)hexahydrocyclopenta[c]pyrrol-2(1H)-yl)acetamide]	0.45	7.75
Cc1c(-c2[nH]c3sc(C45CCN(CC(N)=O)CC4C5)c(C)c3c2C(C)C)cn2ncnc2c1C (single isomer, unassigned) [Example 103, 2-[6-[5-(7,8-dimethyl-[1,2,4]triazolo[1,5-a]pyridin-6-yl)-4-isopropyl-3-methyl-6H-thieno[2,3-b]pyrrol-2-yl]-3-azabicyclo[4.1.0]heptan-3-yl]acetamide]	0.91	20.4
Cc1c(C2C[C@@H]3C[C@H]2CN3CC(N)=O)sc2[nH]c(-c3cc(C)c4ncnn4c3)c(C(C)C)c12 (some centres unmarked) [Example 66]	0.12	0.16
Cc1c(-c2[nH]c3sc(C4CCN(C(=O)[C@H]5CN6CCCC6CO5)CC4)c(C)c3c2C(C)C)cn2ncnc2c1C (some centres unmarked) [Example 104]	0.1	2.49
Cc1c(-c2[nH]c3sc([C@@H]4C[C@@H]5C[C@H]4CN5CCC#N)c(C)c3c2C(C)C)cn2ncnc2c1C [Example 166]	1.2	0.48
Cc1c(-c2[nH]c3sc(C45CCN(CCS(C)(=O)=O)CC4C5)c(C)c3c2C(C)C)cn2ncnc2c1C (centres unmarked) [Example 217]	1.27	78.6
Cc1c(-c2[nH]c3sc([C@@H]4C[C@@H]5CC[C@H]4CN5Cc4cn(C)nn4)c(C)c3c2C(C)C)cn2ncnc2c1C (single isomer, unassigned) [Example 216]	2.74	5.26
Cc1c(C2CCN(CC(N)=O)CC2)sc2[nH]c(-c3cc(C)c4nnnn4c3)c(C(C)C)c12 [Example 236]	1.94	21.8
Cc1c(CCC2CCN(CC(N)=O)CC2)sc2[nH]c(-c3cc(C)c4ncnn4c3)c(C(C)C)c12 [Example 203]	4.2	6.23
Cc1noc(C)c1CN1C[C@@H]2C[C@H]1C[C@H]2c1sc2[nH]c(-c3cn4ncnc4c(C)c3C)c(C(C)C)c2c1C [Example 120]	0.09	1.1
Cc1c(-c2[nH]c3sc(C4CCN(CC5CCN(C)C5=O)CC4)c(C)c3c2C(C)C)cn2ncnc2c1C (centres unmarked) [Example 289]	0.72	2.33
Cc1c(C23CNCC2C3(F)F)sc2[nH]c(-c3cc(C)c4ncnn4c3)c(C(C)C)c12 (centres unmarked) [Example 198]	5.06	13.8
Cc1c(C2CCN(C(=O)[C@H]3CNCCO3)CC2)sc2[nH]c(-c3cc(C)c4ncnn4c3)c(C(C)C)c12 [Example 46]	0.59	13
Cc1c(C2CCN(C(=O)[C@@H]3COC(C)(C)CN3)CC2)sc2[nH]c(-c3cc(C)c4ncnn4c3)c(C(C)C)c12 [Example 159]	0.94	31.5
Cc1c(-c2[nH]c3sc([C@@H]4C[C@@H]5C[C@H]4CN5Cc4ccc[nH]c4=O)c(C)c3c2C(C)C)cn2ncnc2c1C [Example 171]	< 0.05	0.06
Cc1c(-c2[nH]c3sc([C@@H]4C[C@@H]5C[C@H]4CN5C(=O)[C@H]4COCCN4)c(C)c3c2C(C)C)cn2ncnc2c1C [Example 146]	0.9	12.8
Cc1c(C2CCN(CC(N)=O)CC2)sc2[nH]c(-c3cc(C)c4ncnn4c3)c(C(C)C)c12 [Example 9, 2-(4-(4-isopropyl-3-methyl-5-(8-methyl-[1,2,4]triazolo[1,5-a]pyridin-6-yl)-6H-thieno[2,3-b]pyrrol-2-yl)piperidin-1-yl)acetamide]	0.64	17.1
Cc1c(C2C3CCC2CN(CC(N)=O)C3)sc2[nH]c(-c3cc(C)c4ncnn4c3)c(C(C)C)c12 (centres unmarked) [Example 63]	0.26	27.3
Cc1c(-c2[nH]c3sc(C4C[C@@H]5C[C@H]4CC5N4CCNC(=O)C4)c(C)c3c2C(C)C)cn2ncnc2c1C (some centres unmarked) [Example 257]	1.29	7.58
CO[C@H]1CN[C@@H](C(=O)N2CCC(c3sc4[nH]c(-c5cc(C)c6ncnn6c5)c(C(C)C)c4c3C)CC2)C1 [Example 44]	0.37	13.1
